What is called Ki is the dissociation constant of the complex between target and ligand, obtained from inhibition or displacement.

Ki and IC50 data for nine molecules are collected here from patent publication US20240199635A1, “TETRAHYDROTHIENO PYRIDINE DERIVATIVES AS DDRS INHIBITORS” (CHIESI FARMACEUTICI S.P.A., priority 2021, published 2024).

In experiment [1] the target is T1, DDR2 (Homo sapiens (Human), UniProt Q16832). The experiment can be described thus: DDR2 binding assay (LanthaScreen Europium Kinase Binding assay). The settings on record: potency class, read-out: Ki DDR2. Put shortly: (§1)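 TR-FRET tracer displacement: compounds incubated 1 h at room temperature with 5 nM DDR1 (20 nM Tracer 178) or 5 nM DDR2 (10 nM Tracer 178), 2 nM Eu-anti-GST antibody, HEPES pH 7.5 buffer. 665/615 nm ratio read; IC50 from 4-parameter fit, converted to Ki by Cheng-Prusoff.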
T1 sequence (Q16832 22-855): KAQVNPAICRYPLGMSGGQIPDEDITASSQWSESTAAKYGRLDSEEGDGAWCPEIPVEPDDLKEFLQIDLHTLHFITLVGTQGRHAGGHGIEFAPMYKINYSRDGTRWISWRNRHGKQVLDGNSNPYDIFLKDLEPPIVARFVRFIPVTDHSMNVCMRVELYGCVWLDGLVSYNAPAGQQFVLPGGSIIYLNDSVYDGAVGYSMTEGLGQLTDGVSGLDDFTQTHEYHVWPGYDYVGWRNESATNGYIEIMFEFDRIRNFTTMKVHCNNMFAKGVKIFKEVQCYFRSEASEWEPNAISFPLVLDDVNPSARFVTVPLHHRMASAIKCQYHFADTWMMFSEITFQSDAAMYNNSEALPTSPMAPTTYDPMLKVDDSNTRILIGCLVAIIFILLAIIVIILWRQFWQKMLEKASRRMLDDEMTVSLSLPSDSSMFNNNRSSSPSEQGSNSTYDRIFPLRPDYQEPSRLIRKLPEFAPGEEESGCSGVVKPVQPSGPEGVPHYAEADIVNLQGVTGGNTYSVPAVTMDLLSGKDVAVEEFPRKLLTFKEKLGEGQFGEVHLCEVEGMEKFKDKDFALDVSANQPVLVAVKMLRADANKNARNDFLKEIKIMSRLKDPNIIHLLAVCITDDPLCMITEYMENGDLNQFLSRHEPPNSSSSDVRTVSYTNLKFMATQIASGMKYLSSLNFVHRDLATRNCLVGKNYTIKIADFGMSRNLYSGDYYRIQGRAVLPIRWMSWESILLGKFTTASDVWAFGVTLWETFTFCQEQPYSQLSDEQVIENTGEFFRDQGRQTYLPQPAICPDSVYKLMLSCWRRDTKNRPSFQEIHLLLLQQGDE
(In general: TR-FRET usually uses a lanthanide donor and a delayed reading to cut background.)

The target of experiment [2] is T1, DDR2. Kind of experiment: DDR2 cell based assay (phospho-ELISA in HEK293T-DDR2 recombinant cells). The settings on record: DDR2 phosphorylation, Type II Collagen stimulation, potency class, read-out: IC50DDR2. Here is the method: The inhibition of DDR2 phosphorylation by compounds was evaluated in HEK293T-DDR2 recombinant cells by phospho-ELISA assay. Briefly, HEK293T-DDR2 cells were seeded in poly-D-lysine-coated 24-well plates at a density of 250,000 cells/well and incubated for 1.5 hours at 37° C. and 5% CO2 in DMEM+10% FBS. After that, the medium was changed to serum-free DMEM and cells were incubated for 3 hours. Then. test compounds were added at different concentrations 30 minutes before stimulation with bovine Type II Collagen at […] for further 3 hours. For DDR2 phospho-ELISA assay (DuoSet IC Human Phospho-DDR2; R&D Systems), protein extracts were obtained by adding 60 μl/well of lysis buffer prepared according to the manufacturer's instructions. Protein concentration in the samples was determined by BCA assay and the levels of phospho-DDR2 were determined following R&D Systems indications. Raw data were normalized to maximal inhibition control (0% for normalization) and positive control (100% for normalization; cells treated with 20 μg/ml collagen II) and IC50 parameters were calculated in GraphPad Prism 8.0 software, using sigmoidal dose-response curve fitting with variable slope.
(In an ELISA, binding on a coated surface is turned into a signal by an enzyme label.)

Experiment [3] concerns the target T2, DDR1 (Homo sapiens (Human), UniProt Q08345). The experiment can be described thus: DDR1 binding assay (LanthaScreen Europium Kinase Binding assay). The settings on record: potency class, read-out: Ki DDR1. Put shortly: as §1
Experiment [4] addresses T2, DDR1. The experiment can be described thus: DDR1 cell based assay (PathHunter U2OS DDR1 assay). The settings on record: U2OS-DDR1 cells, Type II Collagen stimulation, potency class. Put shortly: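 Receptor activation measured by enzyme-fragment complementation luminescence in engineered U2OS cells. Compound added 30 min before overnight challenge with 20 μg/ml bovine collagen II; data scaled between vehicle and collagen-stimulated controls, IC50 derived by four-parameter variable-slope fitting.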

T2 sequence (Q08345 19-913): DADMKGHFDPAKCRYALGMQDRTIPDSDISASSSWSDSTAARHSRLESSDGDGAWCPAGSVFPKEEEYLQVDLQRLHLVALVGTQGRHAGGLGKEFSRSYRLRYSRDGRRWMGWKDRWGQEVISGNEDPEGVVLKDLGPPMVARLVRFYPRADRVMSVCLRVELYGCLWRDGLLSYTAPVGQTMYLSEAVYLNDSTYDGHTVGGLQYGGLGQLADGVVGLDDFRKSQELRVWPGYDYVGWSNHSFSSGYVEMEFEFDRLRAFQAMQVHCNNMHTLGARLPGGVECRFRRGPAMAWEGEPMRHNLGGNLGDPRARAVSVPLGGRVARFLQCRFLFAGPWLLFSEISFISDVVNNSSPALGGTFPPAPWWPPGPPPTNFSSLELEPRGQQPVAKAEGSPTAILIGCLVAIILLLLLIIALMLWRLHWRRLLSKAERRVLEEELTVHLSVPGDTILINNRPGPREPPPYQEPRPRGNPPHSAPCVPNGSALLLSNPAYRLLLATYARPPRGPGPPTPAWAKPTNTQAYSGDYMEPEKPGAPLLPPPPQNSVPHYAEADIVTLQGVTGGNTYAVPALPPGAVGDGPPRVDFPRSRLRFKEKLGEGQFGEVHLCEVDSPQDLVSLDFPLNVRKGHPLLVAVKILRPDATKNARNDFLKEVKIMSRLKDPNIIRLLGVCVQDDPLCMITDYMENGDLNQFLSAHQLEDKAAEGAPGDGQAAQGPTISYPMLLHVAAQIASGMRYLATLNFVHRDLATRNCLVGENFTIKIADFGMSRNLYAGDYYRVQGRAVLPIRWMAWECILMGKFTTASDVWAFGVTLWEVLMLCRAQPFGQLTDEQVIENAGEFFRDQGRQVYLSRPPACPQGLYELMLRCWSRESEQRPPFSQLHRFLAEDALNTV

For the molecule `CC(=O)Nc1ccc(CN2CCc3c(C(=O)Nc4cc(F)cc(C(F)(F)F)c4)csc3C2)cn1` [Example 42, 6-((6-acetamidopyridin-3-yl)methyl)-N-(3-fluoro-5-(trifluoromethyl)phenyl)-4,5,6,7-tetrahydrothieno[2,3-c]pyridine-3-carboxamide], the Ki on DDR2 [1] and on DDR1 [3] was less than 25 nM each time. The IC50 on DDR2 [2] and against DDR1 [4] was less than 25 nM throughout.

With `CN(C)CC(=O)Nc1cncc(CN2CCc3c(C(=O)Nc4cccc(C(F)(F)F)c4)csc3C2)c1` [Example 31, 6-((5-(2-(dimethylamino)acetamido)pyridin-3-yl)methyl)-N-(3-(trifluoromethyl)phenyl)-4,5,6,7-tetrahydrothieno[2,3-c]pyridine-3-carboxamide], the inhibitory constant (Ki) on DDR2 [1] and at DDR1 [3] was less than 25 nM in each case. Moreover, the IC50 on DDR2 [2] and against DDR1 [4] was 25 to 50 nM each time.

Take `O=C(Nc1cccc(C(F)(F)F)c1)c1csc2c1CCN(Cc1cncnc1)C2` [Example 5, 6-(pyrimidin-5-ylmethyl)-N-(3-(trifluoromethyl)phenyl)-4,5,6,7-tetrahydrothieno[2,3-c]pyridine-3-carboxamide]: the Ki on DDR2 [1] and on DDR1 [3] was less than 25 nM each time. Besides, the IC50 on DDR2 [2] was less than 25 nM; at DDR1 [4], 25 to 50 nM.

Consider `O=C(Nc1cccc(C(F)(F)F)c1)c1csc2c1CCN(Cc1cncc(Cl)c1)C2` [Example 20, 6-((5-chloropyridin-3-yl)methyl)-N-(3-(trifluoromethyl)phenyl)-4,5,6,7-tetrahydrothieno[2,3-c]pyridine-3-carboxamide], for which the Ki at DDR2 [1] and on DDR1 [3] was less than 25 nM throughout. In addition, the IC50 at DDR1 [4] is 25 to 50 nM.

In the case of `O=C(Nc1cccc(C(F)(F)F)c1)c1csc2c1CCN(Cc1cncc(N3CCS(=O)(=O)CC3)c1)C2` [Example 30, 6-((5-(1,1-dioxidothiomorpholino)pyridin-3-yl)methyl)-N-(3-(trifluoromethyl)phenyl)-4,5,6,7-tetrahydrothieno[2,3-c]pyridine-3-carboxamide], the Ki on DDR2 [1] and at DDR1 [3] was less than 25 nM throughout. The molecule further registered an IC50 against DDR1 [4] of 50 to 80 nM.

Turning to `CC(C)(c1cc(NC(=O)c2csc3c2CCN(Cc2cncnc2)C3)no1)C(F)(F)F` [Example 6, 6-(pyrimidin-5-ylmethyl)-N-(5-(1,1,1-trifluoro-2-methylpropan-2-yl)isoxazol-3-yl)-4,5,6,7-tetrahydrothieno[2,3-c]pyridine-3-carboxamide], the Ki at DDR2 [1] and on DDR1 [3] was less than 25 nM each time. Besides, the IC50 against DDR1 [4] was in the range of 25 to 50 nM.

On to `COc1cncc(CN2CCc3c(C(=O)Nc4cccc(C(F)(F)F)c4)csc3C2)c1` [Example 21, 6-((5-methoxypyridin-3-yl)methyl)-N-(3-(trifluoromethyl)phenyl)-4,5,6,7-tetrahydrothieno[2,3-c]pyridine-3-carboxamide], for which the Ki on DDR2 [1] and on DDR1 [3] was less than 25 nM each time. Moreover, the IC50 against DDR1 [4] is less than 25 nM.

With `O=C(Nc1cc(F)cc(OC(F)F)c1)c1csc2c1CCN(Cc1cncnc1)C2` [Example 12, N-(3-(difluoromethoxy)-5-fluorophenyl)-6-(pyrimidin-5-ylmethyl)-4,5,6,7-tetrahydrothieno[2,3-c]pyridine-3-carboxamide], the Ki at DDR2 [1] and on DDR1 [3] was less than 25 nM throughout. For the same molecule, the IC50 against DDR1 [4] is 25 to 50 nM.

With `O=C(Nc1cccc(C(F)(F)F)c1)c1csc2c1CCN(Cc1cncc(C(F)(F)F)c1)C2` [Example 23, N-(3-(trifluoromethyl)phenyl)-6-((5-(trifluoromethyl)pyridin-3-yl)methyl)-4,5,6,7-tetrahydrothieno[2,3-c]pyridine-3-carboxamide], the Ki on DDR2 [1] and at DDR1 [3] was less than 25 nM throughout. At DDR1 [4], this molecule showed an IC50 of 25 to 50 nM.
